Tests used:
Cholinesterase [1] = molecular target: T1, Cholinesterase (Homo sapiens, UniProt P06276); experiment: Inhibition of human BChE using BTC as substrate incubated for 2 mins by Ellman's method
[2] = molecular target: Acetylcholinesterase (Electrophorus electricus) (UniProt O42275); experiment: Inhibition of electric eel AChE using ATC as substrate at 10 uM incubated for 2 mins by Ellman's method relative to control
Cholinesterase [3] = molecular target: Cholinesterase (Equus caballus, UniProt P81908); experiment: Inhibition of equine serum BChE using BTC as substrate incubated for 2 mins by Ellman's method; type: cell-free
Cholinesterase [4] = molecular target: T1, Cholinesterase; experiment: Inhibition of human BChE using BTC as substrate at 10 uM incubated for 2 mins by Ellman's method relative to control
[5] = Metabolic stability in human liver microsomes assessed as half life at 2 uM incubated for 60 mins by LC-MS/MS analysis; type: ADME, Microsome
[6] = test system: Antioxidant response element; experiment: Induction of ARE in human HepG2-ARE-C8 cells incubated for 24 hrs by luciferase based assay; type: cell-based; details: HepG2-ARE-C8, 24 h
Acetylcholinesterase = Acetylcholinesterase (Electrophorus electricus, UniProt O42275); experiment: Inhibition of electric eel AChE using ATC as substrate incubated for 2 mins by Ellman's method
[7] = molecular target: Cholinesterase (Equus caballus) (UniProt P81908); experiment: Inhibition of equine serum BChE using BTC as substrate at 10 uM incubated for 2 mins by Ellman's method relative to control; type: cell-free
Chain of Cholinesterase (Equus caballus) (P81908 whole entry): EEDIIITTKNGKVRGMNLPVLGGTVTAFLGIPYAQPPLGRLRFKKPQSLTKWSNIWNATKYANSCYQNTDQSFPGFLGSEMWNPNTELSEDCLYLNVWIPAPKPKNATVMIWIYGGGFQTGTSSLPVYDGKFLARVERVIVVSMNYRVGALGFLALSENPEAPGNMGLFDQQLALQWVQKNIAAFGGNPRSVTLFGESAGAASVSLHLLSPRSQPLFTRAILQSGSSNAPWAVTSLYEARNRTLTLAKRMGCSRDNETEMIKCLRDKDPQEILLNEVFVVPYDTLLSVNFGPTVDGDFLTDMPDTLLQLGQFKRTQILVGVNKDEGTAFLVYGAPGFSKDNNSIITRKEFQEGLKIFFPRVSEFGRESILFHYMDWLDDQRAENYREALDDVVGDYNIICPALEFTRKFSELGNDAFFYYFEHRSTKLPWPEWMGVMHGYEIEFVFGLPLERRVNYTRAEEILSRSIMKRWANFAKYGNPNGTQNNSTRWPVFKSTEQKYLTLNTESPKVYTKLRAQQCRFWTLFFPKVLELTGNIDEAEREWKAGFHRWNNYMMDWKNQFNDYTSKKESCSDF

Chain of Cholinesterase (Equus caballus, UniProt P81908) (P81908 whole entry): as above
Chain of Acetylcholinesterase (Electrophorus electricus) (O42275 24-633 limits assumed): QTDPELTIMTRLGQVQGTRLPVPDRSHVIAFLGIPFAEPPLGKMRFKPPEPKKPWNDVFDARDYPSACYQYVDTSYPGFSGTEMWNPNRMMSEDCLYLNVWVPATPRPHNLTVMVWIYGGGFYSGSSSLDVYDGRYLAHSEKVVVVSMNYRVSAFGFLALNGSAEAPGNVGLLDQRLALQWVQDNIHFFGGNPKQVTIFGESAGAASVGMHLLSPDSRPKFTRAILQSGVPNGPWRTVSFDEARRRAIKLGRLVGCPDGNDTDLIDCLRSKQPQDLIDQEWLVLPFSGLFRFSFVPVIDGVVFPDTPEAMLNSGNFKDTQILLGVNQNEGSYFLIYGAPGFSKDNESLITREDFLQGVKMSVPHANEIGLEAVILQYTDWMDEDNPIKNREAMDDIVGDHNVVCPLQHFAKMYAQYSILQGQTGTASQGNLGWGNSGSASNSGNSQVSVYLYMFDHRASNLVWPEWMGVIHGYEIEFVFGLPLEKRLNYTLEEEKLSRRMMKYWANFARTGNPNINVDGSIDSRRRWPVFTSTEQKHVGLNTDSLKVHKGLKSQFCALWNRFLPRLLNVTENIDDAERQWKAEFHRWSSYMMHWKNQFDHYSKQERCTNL
Chain of Acetylcholinesterase (O42275 whole entry): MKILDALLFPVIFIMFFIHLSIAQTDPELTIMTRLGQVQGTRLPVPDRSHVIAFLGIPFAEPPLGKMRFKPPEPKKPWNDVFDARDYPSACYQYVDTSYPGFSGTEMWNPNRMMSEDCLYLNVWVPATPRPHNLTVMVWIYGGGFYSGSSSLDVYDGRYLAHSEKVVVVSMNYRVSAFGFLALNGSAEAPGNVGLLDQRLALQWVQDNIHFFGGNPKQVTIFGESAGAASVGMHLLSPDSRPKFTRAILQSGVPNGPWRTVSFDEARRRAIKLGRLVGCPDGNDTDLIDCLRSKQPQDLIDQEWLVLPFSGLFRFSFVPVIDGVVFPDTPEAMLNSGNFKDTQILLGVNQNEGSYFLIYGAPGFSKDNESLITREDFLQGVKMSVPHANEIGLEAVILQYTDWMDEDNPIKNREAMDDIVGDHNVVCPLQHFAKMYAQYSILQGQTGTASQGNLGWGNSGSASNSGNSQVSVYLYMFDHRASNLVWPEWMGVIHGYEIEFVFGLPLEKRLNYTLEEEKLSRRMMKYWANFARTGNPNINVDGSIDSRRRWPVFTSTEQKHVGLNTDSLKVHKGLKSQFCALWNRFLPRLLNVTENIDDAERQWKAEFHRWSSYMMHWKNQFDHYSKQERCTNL
T1 sequence (P06276 whole entry): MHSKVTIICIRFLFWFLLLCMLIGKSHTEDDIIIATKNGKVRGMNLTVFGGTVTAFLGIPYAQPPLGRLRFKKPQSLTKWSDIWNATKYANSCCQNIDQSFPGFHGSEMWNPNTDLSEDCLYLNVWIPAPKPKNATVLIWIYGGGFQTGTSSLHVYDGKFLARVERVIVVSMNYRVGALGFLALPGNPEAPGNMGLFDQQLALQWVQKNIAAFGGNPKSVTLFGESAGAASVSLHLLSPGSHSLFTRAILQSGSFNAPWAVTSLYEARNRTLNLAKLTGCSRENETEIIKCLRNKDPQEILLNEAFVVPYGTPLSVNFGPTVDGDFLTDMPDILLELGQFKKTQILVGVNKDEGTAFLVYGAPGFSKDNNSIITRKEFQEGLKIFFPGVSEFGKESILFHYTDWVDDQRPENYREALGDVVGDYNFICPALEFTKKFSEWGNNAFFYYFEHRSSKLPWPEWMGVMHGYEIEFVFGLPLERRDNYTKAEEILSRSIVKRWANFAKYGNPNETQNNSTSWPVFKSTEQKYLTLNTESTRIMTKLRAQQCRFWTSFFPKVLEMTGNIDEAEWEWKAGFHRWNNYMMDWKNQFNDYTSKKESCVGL

Structure (SMILES) | IC50 (Cholinesterase [1]) | inhibition [2] | IC50 (Cholinesterase [3]) | inhibition (Cholinesterase [4]) | half-life at 2 µM [5] | EC50 [6] | IC50 (Acetylcholinesterase) | inhibition [7]
O=C(Nc1cnc2ccccc2c1N1CCN(Cc2ccccc2)CC1)c1ccc(Cl)cc1Cl | 2410 nM | < 50% | 230 nM |  |  |  |  | 
O=C(Nc1cnc2ccccc2c1N1CCN(Cc2ccccc2)CC1)c1cccc([N+](=O)[O-])c1 |  | < 50% | 1300 nM | < 50% |  |  |  | 
O=C(Cc1ccccc1)Nc1cnc2ccccc2c1N1CCN(Cc2ccccc2)CC1 | 9230 nM | < 50% | 590 nM |  |  |  |  | 
CC(C)c1ccc(C(=O)Nc2cnc3ccccc3c2N2CCN(Cc3ccccc3)CC2)cc1 |  | < 50% | 1180 nM | < 50% |  |  |  | 
O=C(CCc1ccccc1)Nc1cnc2ccccc2c1N1CCN(Cc2ccccc2)CC1 | 5390 nM | < 50% | 440 nM |  |  |  |  | 
N#Cc1ccc(C(=O)Nc2cnc3ccccc3c2N2CCN(Cc3ccccc3)CC2)cc1 |  | < 50% | 7610 nM | < 50% |  |  |  | 
O=C(Nc1cnc2ccccc2c1N1CCN(Cc2ccccc2)CC1)c1ccccc1 | 1680 nM | < 50% | 3060 nM |  | 9.4 min |  |  | 
O=C(Nc1cnc2ccccc2c1N1CCN(Cc2ccccc2)CC1)c1ccc([N+](=O)[O-])c([N+](=O)[O-])c1 |  | < 50% | 9040 nM | < 50% |  |  |  | 
O=C(Nc1cnc2ccccc2c1N1CCN(Cc2ccccc2)CC1)c1ccccc1Cl | 1130 nM | < 50% | 180 nM |  |  |  |  | 
COc1ccccc1C(=O)Nc1cnc2ccccc2c1N1CCN(Cc2ccccc2)CC1 | 18400 nM | < 50% | 180 nM |  |  |  |  | 
CCCCc1ccc(C(=O)Nc2cnc3ccccc3c2N2CCN(Cc3ccccc3)CC2)cc1 | 550 nM | < 50% | 130 nM |  |  |  |  | 
O=C(Nc1cnc2ccccc2c1N1CCN(Cc2ccccc2)CC1)c1cccc(Cl)c1 |  | < 50% | 1580 nM | < 50% |  |  |  | 
O=C(Nc1cnc2ccccc2c1N1CCN(Cc2ccccc2)CC1)c1ccc([N+](=O)[O-])cc1 |  | < 50% | 700 nM | < 50% |  |  |  | 
CC(C)(C)c1cc(O)ccc1O [E319] |  |  |  |  |  | 25600 nM |  | 
O=C(Nc1cnc2ccccc2c1N1CCN(Cc2ccccc2)CC1)c1ccco1 |  |  | 420 nM | < 50% |  |  | 4220 nM | 
Cc1cccc(C(=O)Nc2cnc3ccccc3c2N2CCN(Cc3ccccc3)CC2)c1 |  | < 50% | 360 nM | < 50% |  |  |  | 
O=C(Nc1cnc2ccccc2c1N1CCN(Cc2ccccc2)CC1)c1ccc(Br)cc1 |  | < 50% | 1270 nM | < 50% |  |  |  | 
COc1cccc(C(=O)Nc2cnc3ccccc3c2N2CCN(Cc3ccccc3)CC2)c1 |  | < 50% | 300 nM | < 50% |  |  |  | 
Cc1ccc(C(=O)Nc2cnc3ccccc3c2N2CCN(Cc3ccccc3)CC2)cc1 | 770 nM | < 50% | 160 nM |  |  |  |  | 
O=C(Nc1cnc2ccccc2c1N1CCN(Cc2ccccc2)CC1)c1cccc2ccccc12 | 4130 nM | < 50% | 140 nM |  |  |  |  | 

Structure (SMILES) | IC50 (Cholinesterase [1]) | inhibition [2] | IC50 (Cholinesterase [3]) | inhibition (Cholinesterase [4]) | half-life at 2 µM [5] | EC50 [6] | IC50 (Acetylcholinesterase) | inhibition [7]
O=C(Nc1cnc2ccccc2c1N1CCN(Cc2ccccc2)CC1)c1ccccn1 | 2660 nM | < 50% | 280 nM |  |  |  |  | 
O=C(Nc1cnc2ccccc2c1N1CCN(Cc2ccccc2)CC1)c1ccc2ccccc2c1 | 12000 nM | < 50% | 600 nM |  |  |  |  | 
Cc1cccc(C(=O)Nc2cnc3ccccc3c2N2CCN(Cc3ccccc3)CC2)n1 |  | < 50% | 3320 nM | < 50% |  |  |  | 
O=C(Cc1ccc(Cl)cc1)Nc1cnc2ccccc2c1N1CCN(Cc2ccccc2)CC1 |  | < 50% | 960 nM | < 50% |  |  |  | 
Cc1cccc(CC(=O)Nc2cnc3ccccc3c2N2CCN(Cc3ccccc3)CC2)c1 | 10700 nM | < 50% | 430 nM |  |  |  |  | 
CCCCCc1ccc(C(=O)Nc2cnc3ccccc3c2N2CCN(Cc3ccccc3)CC2)cc1 | 1590 nM | < 50% | 170 nM |  |  |  |  | 
O=C(Nc1cnc2ccccc2c1N1CCN(Cc2ccccc2)CC1)C1CCCO1 (centres undefined) |  | < 50% |  | < 50% |  |  |  | < 50%
Cc1ccc(C(=O)Nc2cnc3ccccc3c2N2CCN(Cc3ccccc3)CC2)c(C)c1 | 3520 nM |  | 400 nM |  |  |  | 3770 nM | 
O=C(Nc1cnc2ccccc2c1N1CCN(Cc2ccccc2)CC1)c1ccc(F)cc1 |  | < 50% | 3310 nM | < 50% |  |  |  | 
Cc1ccc(CC(=O)Nc2cnc3ccccc3c2N2CCN(Cc3ccccc3)CC2)cc1 |  | < 50% | 4730 nM | < 50% |  |  |  | 
Cc1ccccc1C(=O)Nc1cnc2ccccc2c1N1CCN(Cc2ccccc2)CC1 | 1200 nM | < 50% | 2240 nM |  |  |  |  | 
O=C(Cc1cccc([N+](=O)[O-])c1)Nc1cnc2ccccc2c1N1CCN(Cc2ccccc2)CC1 |  | < 50% | 6270 nM | < 50% |  |  |  | 
O=C(Nc1cnc2ccccc2c1N1CCN(Cc2ccccc2)CC1)c1ccc(Cl)cc1 | 4330 nM | < 50% | 400 nM |  |  |  |  | 
O=C(Nc1cnc2ccccc2c1N1CCN(Cc2ccccc2)CC1)c1ccc(F)cc1F |  | < 50% | 460 nM | < 50% |  |  |  | 
O=C(Nc1cnc2ccccc2c1N1CCN(Cc2ccccc2)CC1)c1cccs1 |  |  | 210 nM | < 50% |  |  | 4040 nM | 
COc1ccc(C(=O)Nc2cnc3ccccc3c2N2CCN(Cc3ccccc3)CC2)cc1 |  | < 50% | 180 nM | < 50% |  |  |  | 
O=C(Cc1ccccc1Cl)Nc1cnc2ccccc2c1N1CCN(Cc2ccccc2)CC1 | 1150 nM | < 50% | 770 nM |  |  |  |  | 
CCc1ccc(C(=O)Nc2cnc3ccccc3c2N2CCN(Cc3ccccc3)CC2)cc1 |  | < 50% | 2650 nM | < 50% |  |  |  | 
O=C(Nc1cnc2ccccc2c1N1CCN(Cc2ccccc2)CC1)C1CCCCC1 |  |  | 11900 nM | < 50% |  |  | 2020 nM | 
O=C(Nc1cnc2ccccc2c1N1CCN(Cc2ccccc2)CC1)C1CCCC1 |  |  | 15100 nM | < 50% |  |  | 1340 nM | 

From ChEMBL document CHEMBL5500378, “Discovery of 4-benzylpiperazinequinoline BChE inhibitor that suppresses neuroinflammation for the treatment of Alzheimer's disease” (Eur J Med Chem, 2024)
